Tested on: patients with acute lymphoblastic leukemia
Experiment: Adverse events (CTCAE version 4.0), Phase II study NCI-9775 of sapanisertib monotherapy
Type: in vivo
Method: Responders could continue on the same dose or proceed to allogeneic hematopoietic cell transplant if available. Non‐responders (but tolerating drug) could increase their dose to 4 mg orally for 21 days every 28 days (dose level + 1) starting in Cycle 3 and 4 mg orally continuously (dose level + 2) starting in Cycle 5 (if they tolerated dose level + 1). Dose reduction was recommended for toxicity (dose level − 1: 2 mg daily for 21 days every 28 days; dose level − 2: 2 mg daily for 5 days/week for 3 weeks every 4 weeks). […] Intrathecal chemotherapy was allowed per institutional standard policies. In‐home blood glucose monitoring was performed daily to monitor blood sugar (a glucometer was given to every patient on the study). Discontinuation of therapy was recommended for disease progression, severe toxicity, lack of response, proceeding to hematopoietic cell transplant, or prolonged delay of the subsequent cycle (>1 month delay for therapy‐related toxicity or >2 months delay for unrelated toxicity).
The primary endpoint was the proportion of successes, which was estimated by the number of successes divided by the total number of evaluable patients. Secondary endpoints of duration of response (CR or CRi) and overall survival (OS) were evaluated using Kaplan–Meier techniques; the frequency of proceeding to allogeneic stem cell transplant after achieving response and adverse events (AEs), as evaluated using reported the NCI Common Terminology Criteria for Adverse Events (CTCAE) version 4.0, were presented using descriptive statistics.

[1] = Grade 3–4, at least possibly related
[2] = Grade >2 hematological, abstract
[3] = grade 3–4 non‐hematologic, abstract
[4] = possibly related, B-Cell, 10 evaluable
[5] = possibly related, T-Cell, 5 evaluable
[6] = treatment-related, 15 evaluable

Compound: CC(C)n1nc(-c2ccc3oc(N)nc3c2)c2c(N)ncnc21 [sapanisertib]
- patients with a grade 3 or higher AE related to the study drug (15 evaluated): 9 patients
- patients with at least 1 grade 3 AE (15 evaluated): 15 patients
- anemia, patients [1]: 4
- leukocytosis, patients [1]: 1
- leukopenia, patients [1]: 2
- lymphopenia, patients [1]: 2
- neutropenia, patients [1]: 1
- thrombocytopenia, patients [1]: 4
- abdominal pain, patients (Grade 3–4 treatment‐related): 1
- anorexia, patients (Grade 3–4 treatment‐related): 1
- bilirubin increase, patients (Grade 3–4 treatment‐related): 1
- confusion, patients (Grade 3–4 treatment‐related): 1
- delirium, patients (Grade 3–4 treatment‐related): 1
- febrile neutropenia, patients (Grade 3–4 treatment‐related): 1
- fibrinogen decrease, patients (Grade 3–4 treatment‐related): 1
- hyperglycemia, patients (Grade 3–4 treatment‐related): 2
- mucositis, patients (Grade 3–4 treatment‐related): 3
- pneumonitis, patients (Grade 3–4 treatment‐related): 1
- thoracic disease, patients (Grade 3–4 treatment‐related): 1
- leukopenia, patients [2]: 3
- lymphopenia, patients [2]: 2
- neutropenia, patients [2]: 1
- thrombocytopenia, patients [2]: 1
- patients with at least one grade ≥3 non‐hematologic AE (Six of 11 patients in clearance-toxicity analysis): 54.5%
- Hyperglycemia, percent of patients (any grade, discussion): 25%
- hyperglycemia, patients (any grade, discussion): 4
- Hyperglycemia G2 (discussion): 2 patients
- Hyperglycemia G3 (discussion): 2 patients
- median time to hyperglycemia (discussion): 6 days
- mucositis (discussion): 3 patients
- anorexia [3]: 1 patient
- confusion [3]: 1 patient
- hepatic failure [3]: 1 patient
- hyperglycemia [3]: 2 patients
- mucositis [3]: 3 patients
- pneumonitis [3]: 1 patient
- seizures [3]: 1 patient
- Abdominal pain grade 3 [4]: 0 (0%) N (%)
- Abdominal pain grade 4 [4]: 0 (0%) N (%)
- Abdominal pain grade 5 [4]: 0 (0%) N (%)
- Anemia grade 3 [4]: 1 (10%) N (%)
- Anemia grade 4 [4]: 0 (0%) N (%)
- Anemia grade 5 [4]: 0 (0%) N (%)
- Anorexia grade 3 [4]: 1 (10%) N (%)
- Anorexia grade 4 [4]: 0 (0%) N (%)
- Anorexia grade 5 [4]: 0 (0%) N (%)
- Confusion grade 3 [4]: 1 (10%) N (%)
- Confusion grade 4 [4]: 0 (0%) N (%)
- Confusion grade 5 [4]: 0 (0%) N (%)
- Fatigue grade 3 [4]: 1 (10%) N (%)
- Fatigue grade 4 [4]: 0 (0%) N (%)
- Fatigue grade 5 [4]: 0 (0%) N (%)
- Febrile neutropenia grade 3 [4]: 1 (10%) N (%)
- Febrile neutropenia grade 4 [4]: 0 (0%) N (%)
- Febrile neutropenia grade 5 [4]: 0 (0%) N (%)
- Hyperglycemia grade 3 [4]: 2 (20%) N (%)
- Hyperglycemia grade 4 [4]: 0 (0%) N (%)
- Hyperglycemia grade 5 [4]: 0 (0%) N (%)
- Leukocytosis grade 3 [4]: 0 (0%) N (%)
- Leukocytosis grade 4 [4]: 0 (0%) N (%)
- Leukocytosis grade 5 [4]: 0 (0%) N (%)
- Lymphocyte count decreased grade 3 [4]: 2 (20%) N (%)
- Lymphocyte count decreased grade 4 [4]: 0 (0%) N (%)
- Lymphocyte count decreased grade 5 [4]: 0 (0%) N (%)
- Mucositis oral grade 3 [4]: 3 (30%) N (%)
- Mucositis oral grade 4 [4]: 0 (0%) N (%)
- Mucositis oral grade 5 [4]: 0 (0%) N (%)
- Neoplasms benign, mal, uncpec - Oth spec grade 3 [4]: 0 (0%) N (%)
- Neoplasms benign, mal, uncpec - Oth spec grade 4 [4]: 0 (0%) N (%)
- Neoplasms benign, mal, uncpec - Oth spec grade 5 [4]: 0 (0%) N (%)
- Neutrophil count decreased grade 3 [4]: 0 (0%) N (%)
- Neutrophil count decreased grade 4 [4]: 1 (10%) N (%)
- Neutrophil count decreased grade 5 [4]: 0 (0%) N (%)
- Platelet count decreased grade 3 [4]: 0 (0%) N (%)
- Platelet count decreased grade 4 [4]: 1 (10%) N (%)
- Platelet count decreased grade 5 [4]: 0 (0%) N (%)
- Pneumonitis grade 3 [4]: 0 (0%) N (%)
- Pneumonitis grade 4 [4]: 0 (0%) N (%)
- Pneumonitis grade 5 [4]: 0 (0%) N (%)
- Resp, thoracic, mediastinal - Oth spec grade 3 [4]: 0 (0%) N (%)
- Resp, thoracic, mediastinal - Oth spec grade 4 [4]: 1 (10%) N (%)
- Resp, thoracic, mediastinal - Oth spec grade 5 [4]: 0 (0%) N (%)
- White blood cell decreased grade 3 [4]: 0 (0%) N (%)
- White blood cell decreased grade 4 [4]: 2 (20%) N (%)
- White blood cell decreased grade 5 [4]: 0 (0%) N (%)
- Abdominal pain grade 3 [5]: 1 (20%) N (%)
- Abdominal pain grade 4 [5]: 0 (0%) N (%)
- Abdominal pain grade 5 [5]: 0 (0%) N (%)
- Anemia grade 3 [5]: 0 (0%) N (%)
- Anemia grade 4 [5]: 0 (0%) N (%)
- Anemia grade 5 [5]: 0 (0%) N (%)
- Anorexia grade 3 [5]: 0 (0%) N (%)
- Anorexia grade 4 [5]: 0 (0%) N (%)
- Anorexia grade 5 [5]: 0 (0%) N (%)
- Confusion grade 3 [5]: 0 (0%) N (%)
- Confusion grade 4 [5]: 0 (0%) N (%)
- Confusion grade 5 [5]: 0 (0%) N (%)
- Fatigue grade 3 [5]: 0 (0%) N (%)
- Fatigue grade 4 [5]: 0 (0%) N (%)
- Fatigue grade 5 [5]: 0 (0%) N (%)
- Febrile neutropenia grade 3 [5]: 0 (0%) N (%)
- Febrile neutropenia grade 4 [5]: 0 (0%) N (%)
- Febrile neutropenia grade 5 [5]: 0 (0%) N (%)
- Hyperglycemia grade 3 [5]: 0 (0%) N (%)
- Hyperglycemia grade 4 [5]: 0 (0%) N (%)
- Hyperglycemia grade 5 [5]: 0 (0%) N (%)
- Leukocytosis grade 3 [5]: 1 (20%) N (%)
- Leukocytosis grade 4 [5]: 0 (0%) N (%)
- Leukocytosis grade 5 [5]: 0 (0%) N (%)
- Lymphocyte count decreased grade 3 [5]: 0 (0%) N (%)
- Lymphocyte count decreased grade 4 [5]: 0 (0%) N (%)
- Lymphocyte count decreased grade 5 [5]: 0 (0%) N (%)
- Mucositis oral grade 3 [5]: 0 (0%) N (%)
- Mucositis oral grade 4 [5]: 0 (0%) N (%)
- Mucositis oral grade 5 [5]: 0 (0%) N (%)
- Neoplasms benign, mal, uncpec - Oth spec grade 3 [5]: 1 (20%) N (%)
- Neoplasms benign, mal, uncpec - Oth spec grade 4 [5]: 0 (0%) N (%)
- Neoplasms benign, mal, uncpec - Oth spec grade 5 [5]: 0 (0%) N (%)
- Neutrophil count decreased grade 3 [5]: 0 (0%) N (%)
- Neutrophil count decreased grade 4 [5]: 0 (0%) N (%)
- Neutrophil count decreased grade 5 [5]: 0 (0%) N (%)
- Platelet count decreased grade 3 [5]: 2 (40%) N (%)
- Platelet count decreased grade 4 [5]: 1 (20%) N (%)
- Platelet count decreased grade 5 [5]: 0 (0%) N (%)
- Pneumonitis grade 3 [5]: 1 (20%) N (%)
- Pneumonitis grade 4 [5]: 0 (0%) N (%)
- Pneumonitis grade 5 [5]: 0 (0%) N (%)
- Resp, thoracic, mediastinal - Oth spec grade 3 [5]: 0 (0%) N (%)
- Resp, thoracic, mediastinal - Oth spec grade 4 [5]: 0 (0%) N (%)
- Resp, thoracic, mediastinal - Oth spec grade 5 [5]: 0 (0%) N (%)
- White blood cell decreased grade 3 [5]: 0 (0%) N (%)
- White blood cell decreased grade 4 [5]: 0 (0%) N (%)
- White blood cell decreased grade 5 [5]: 0 (0%) N (%)
- Abdominal pain grade 1 [6]: 0 (0) N (%)
- Abdominal pain grade 2 [6]: 0 (0) N (%)
- Abdominal pain grade 3 [6]: 1 (7) N (%)
- Abdominal pain grade 4 [6]: 0 (0) N (%)
- Abdominal pain grade 5 [6]: 0 (0) N (%)
- Anal mucositis grade 1 [6]: 0 (0) N (%)
- Anal mucositis grade 2 [6]: 1 (7) N (%)
- Anal mucositis grade 3 [6]: 0 (0) N (%)
- Anal mucositis grade 4 [6]: 0 (0) N (%)
- Anal mucositis grade 5 [6]: 0 (0) N (%)
- Anemia grade 1 [6]: 0 (0) N (%)
- Anemia grade 2 [6]: 0 (0) N (%)
- Anemia grade 3 [6]: 4 (27) N (%)
- Anemia grade 4 [6]: 0 (0) N (%)
- Anemia grade 5 [6]: 0 (0) N (%)
- Anorexia grade 1 [6]: 0 (0) N (%)
- Anorexia grade 2 [6]: 1 (7) N (%)
- Anorexia grade 3 [6]: 1 (7) N (%)
- Anorexia grade 4 [6]: 0 (0) N (%)
- Anorexia grade 5 [6]: 0 (0) N (%)
- Anxiety grade 1 [6]: 1 (7) N (%)
- Anxiety grade 2 [6]: 0 (0) N (%)
- Anxiety grade 3 [6]: 0 (0) N (%)
- Anxiety grade 4 [6]: 0 (0) N (%)
- Anxiety grade 5 [6]: 0 (0) N (%)
- Aspartate aminotransferase increased grade 1 [6]: 1 (7) N (%)

Reference: article PMC10726920 (Cancer Medicine, 2023)
